Experimental data: patent publication US5346828A, “Stereoisomeric enrichment of 2-amino-3-hydroxy-3-phenylpropionic acids using d-threonine aldolase” (Celgene Corporation, priority 1992, dated 1994)

Assay: incubation of substrate in the same buffer without enzyme (Enzyme 0), HPLC
Type: physicochemical
Experimental: D,L-Threo 2-amino-2-methyl-3-hydroxy-3-phenylpropionic acid (14.1 mM) is incubated at pH 8.75 in 50 mM borate buffer and 0.8 mM pyridoxal phosphate with ruptured cells containing approximately 300 μL of enzyme.
At time intervals of approximately 30, 120 and 210 minutes, 200 μL of the incubation mixture are removed and diluted with 800 μL of 1% perchloric acid. After centrifugation of this mixture, the supernatant is analyzed on HPLC.

N[C@H](C(=O)O)[C@H](O)c1ccccc1 (relative stereo) [t.phi.S, 2amino-3-hydroxy-3-phenylpropionic acid]
Percentage of total area attributable to benzaldehyde and benzoic acid (30 min.): 0%
Percentage of total area attributable to benzaldehyde and benzoic acid (120 min.): 2.2%
Percentage of total area attributable to benzaldehyde and benzoic acid (210 min.): 3.7%
